From US20240018145A1, “[…]-DEPENDENT EN[…] TREATING OR […]” (priority 2020, published 2024) come the findings set out here.

The first assay has as its system FLU A (PR/8/34). Put plainly: Flu A Neuraminidase Antiviral Assay.
Settings: not given
The assay is classed as cell-based.
`Cc1ccccc1C1C(CC(F)(F)F)CC(C)C2N(C)C(=O)c3c(O)c(=O)ccn3N12` (single isomer, unassigned) [Compound 79A, 7-hydroxy-4,5-dimethyl-1-(o-tolyl)-2-(2,2,2-trifluoroethyl)-1,2,3,4,4a,5-hexahydrodipyrido[1,2-b:2′,1′-f][1,2,4]triazine-6,8-dione]: the 50% effective concentration (EC50) worked out at 83.8 nM.

With `CN1C(=O)c2c(O)c(=O)ccn2N2C1CCC(=O)C2(C)c1ccccc1` (stereo not shown) [Compound 138B, 7-hydroxy-1,5-dimethyl-1-phenyl-3,4,4a,5-tetrahydrodipyrido[1,2-b:2′,1′-f][1,2,4]triazine-2,6,8(1H)-trione], a half-maximal response (EC50) required 1720 nM. `CN1C(=O)c2c(O)c(=O)ccn2N2C1CCC2(C)c1ccccc1` (single isomer, unassigned) [Compound 61A, 6-hydroxy-1,4-dimethyl-1-phenyl-2,3,3a,4-tetrahydro-1H-pyrido[2,1-f]pyrrolo[1,2-b][1,2,4]triazine-5,7-dione] showed an EC50 of 122 nM.

Consider `Cc1cccnc1C1(C)CCCC2N(CC(F)(F)F)C(=O)c3c(O)c(=O)ccn3N21` (single isomer, unassigned) [Compound 44B, 7-hydroxy-1-methyl-1-(3-methylpyridin-2-yl)-5-(2,2,2-trifluoroethyl)-1,2,3,4,4a,5-hexahydrodipyrido[1,2-b:2′,1′-f][1,2,4]triazine-6,8-dione], for which the EC50 was 15.2 nM.

Regarding `CN1C(=O)c2c(O)c(=O)ccn2N2C(c3ccccc3)CCCC12C` (single isomer, unassigned) [Compound 59A, 7-hydroxy-4a,5-dimethyl-1-phenyl-1,2,3,4,4a,5-hexahydrodipyrido[1,2-b:2′,1′-f][1,2,4]triazine-6,8-dione], the EC50 stood at 7280 nM.

The compound `CN1C(=O)c2c(O)c(=O)ccn2N2C(c3ccccc3)C(CC(F)F)CCC12` (single isomer, unassigned) [Compound 129C, 2-(2,2-difluoroethyl)-7-hydroxy-5-methyl-1-phenyl-1,2,3,4,4a,5-hexahydrodipyrido[1,2-b:2′,1′-f][1,2,4]triazine-6,8-dione] displayed an EC50 of 6.6 nM.

`CN1C(=O)c2c(O)c(=O)ccn2N2C(c3ccccc3)C(C3(C(F)(F)F)CC3)CCC12` (single isomer, unassigned) [Compound 108A, 7-hydroxy-5-methyl-1-phenyl-2-(1-(trifluoromethyl)cyclopropyl)-1,2,3,4,4a,5-hexahydrodipyrido[1,2-b:2′,1′-f][1,2,4]triazine-6,8-dione] yielded an EC50 of 5420 nM. On to `CCN1C(=O)c2c(O)c(=O)cc(COC)n2N2C(c3ccccc3)C(CC(F)(F)F)CCC12` (stereo not shown) [Compound 131C, 5-ethyl-7-hydroxy-10-(methoxymethyl)-1-phenyl-2-(2,2,2-trifluoroethyl)-1,2,3,4,4a,5-hexahydrodipyrido[1,2-b:2′,1′-f][1,2,4]triazine-6,8-dione], for which the 50% effective concentration (EC50) is greater than 810 nM. Still for that read-out and setting: in the case of `CN1C(=O)c2c(O)c(=O)ccn2N2C(c3ccccc3)C(CC(C)(F)F)CCC12` (single isomer, unassigned) [Compound 126A, 2-(2,2-difluoropropyl)-7-hydroxy-5-methyl-1-phenyl-1,2,3,4,4a,5-hexahydrodipyrido[1,2-b:2′,1′-f][1,2,4]triazine-6,8-dione] it was greater than 8100 nM; in that of `CCCC1CCC2N(C)C(=O)c3c(O)c(=O)ccn3N2C1(C)c1ccccc1` (single isomer, unassigned) [Compound 33A, 7-hydroxy-1,5-dimethyl-1-phenyl-2-propyl-1,2,3,4,4a,5-hexahydrodipyrido[1,2-b:2′,1′-f][1,2,4]triazine-6,8-dione], 49.5 nM; in that of `CN1C(=O)c2c(O)c(=O)ccn2N2C(c3ccccc3C3CC3)C(CC(F)(F)F)CCC12` (single isomer, unassigned) [Compound 107A, 1-(2-cyclopropylphenyl)-7-hydroxy-5-methyl-2-(2,2,2-trifluoroethyl)-1,2,3,4,4a,5-hexahydrodipyrido[1,2-b:2′,1′-f][1,2,4]triazine-6,8-dione], 4800 nM. In turn, `CN1C(=O)c2c(O)c(=O)ccn2N2C(c3cccc(F)c3)C(CC(F)(F)F)CCC12` (single isomer, unassigned) [Compound 121B, 1-(3-fluorophenyl)-7-hydroxy-5-methyl-2-(2,2,2-trifluoroethyl)-1,2,3,4,4a,5-hexahydrodipyrido[1,2-b:2′,1′-f][1,2,4]triazine-6,8-dione] displayed an EC50 of 5.8 nM.

Compound `CN1C(=O)c2c(O)c(=O)ccn2N2C1CCCC21CCc2ccccc21` (single isomer, unassigned) [Compound 21D, 7-hydroxy-5-methyl-2′,3,3′,4,4a,5-hexahydro-2H-spiro[dipyrido[1,2-b:2′,1′-f][1,2,4]triazine-1,1′-indene]-6,8-dione] yielded an EC50 of 1550 nM. With `Cc1c(F)cccc1C1C(CC(F)(F)F)CCC2N(C)C(=O)c3c(O)c(=O)ccn3N12` (single isomer, unassigned) [Compound 80A, 1-(3-fluoro-2-methylphenyl)-7-hydroxy-5-methyl-2-(2,2,2-trifluoroethyl)-1,2,3,4,4a,5-hexahydrodipyrido[1,2-b:2′,1′-f][1,2,4]triazine-6,8-dione], the midpoint of the response, the EC50, lay at 59.6 nM. On the same count and under the same terms, the figure for `CN1C(=O)c2c(O)c(=O)ccn2N2C(c3cccc(F)c3)CCCC12` (single isomer, unassigned) [Compound 10A, 1-(3-fluorophenyl)-7-hydroxy-5-methyl-1,2,3,4,4a,5-hexahydrodipyrido[1,2-b:2′,1′-f][1,2,4]triazine-6,8-dione] is 1610 nM. `CCN1C(=O)c2c(O)c(=O)ccn2N2C(c3ccccc3)C(CC(F)(F)F)CCC12C` (single isomer, unassigned) [Compound 82A, 5-ethyl-7-hydroxy-4a-methyl-1-phenyl-2-(2,2,2-trifluoroethyl)-1,2,3,4,4a,5-hexahydrodipyrido[1,2-b:2′,1′-f][1,2,4]triazine-6,8-dione] showed an EC50 greater than 810 nM. Turning to `CC1(c2ccccc2)CCCC2N(CC(F)(F)F)C(=O)c3c(O)c(=O)ccn3N21` (single isomer, unassigned) [Compound 34A, 7-hydroxy-1-methyl-1-phenyl-5-(2,2,2-trifluoroethyl)-1,2,3,4,4a,5-hexahydrodipyrido[1,2-b:2′,1′-f][1,2,4]triazine-6,8-dione], the EC50 came to 3090 nM. Still for that read-out and setting: the figure for `O=C1c2c(O)c(=O)ccn2N2C(c3ccccc3)C(CCC(F)(F)F)CCC2N1CC1CC1` (single isomer, unassigned) [Compound 100B, 5-(cyclopropylmethyl)-7-hydroxy-1-phenyl-2-(3,3,3-trifluoropropyl)-1,2,3,4,4a,5-hexahydrodipyrido[1,2-b:2′,1′-f][1,2,4]triazine-6,8-dione] is 5.4 nM; for `CN1C(=O)c2c(O)c(=O)ccn2N2C1CCC1(CCC(C(F)(F)F)CC1)C2c1ccccc1` (single isomer, unassigned) [Compound 73B, 7′-hydroxy-5′-methyl-1′-phenyl-4-(trifluoromethyl)-3′,4′,4a′,5′-tetrahydro-1′H-spiro[cyclohexane-1,2′-dipyrido[1,2-b:2′,1′-f][1,2,4]triazine]-6′,8′-dione] it is greater than 810 nM; for `CN1C(=O)c2c(O)c(=O)ccn2N2C1CCCC2(C)c1ccc(F)cc1` (single isomer, unassigned) [Compound 26A, 1-(4-fluorophenyl)-7-hydroxy-1,5-dimethyl-1,2,3,4,4a,5-hexahydrodipyrido[1,2-b:2′,1′-f][1,2,4]triazine-6,8-dione] it is 8.4 nM. Regarding `CCN1C(=O)c2c(O)c(=O)ccn2N2C1CCCC2(C)c1ccccc1` (single isomer, unassigned) [Compound 36B, 5-ethyl-7-hydroxy-1-methyl-1-phenyl-1,2,3,4,4a,5-hexahydrodipyrido[1,2-b:2′,1′-f][1,2,4]triazine-6,8-dione], the EC50 amounted to 1290 nM. `Cc1ccccc1C1N2C(CCC13CC1C(C3)C1(F)F)N(C)C(=O)c1c(O)c(=O)ccn12` (single isomer, unassigned) [Compound 69A, 6,6-difluoro-7′-hydroxy-5′-methyl-1′-(o-tolyl)-3′,4′,4a′,5′-tetrahydro-1′H-spiro[bicyclo[3.1.0]hexane-3,2′-dipyrido[1,2-b:2′,1′-f][1,2,4]triazine]-6′,8′-dione] showed an EC50 of 2.3 nM. Same read-out and setting: the figure for `CN1C(=O)c2c(O)c(=O)ccn2N2C1CCC2(C)c1ccccc1Cl` (single isomer, unassigned) [Compound 63B, 1-(2-chlorophenyl)-6-hydroxy-1,4-dimethyl-2,3,3a,4-tetrahydro-1H-pyrido[2,1-f]pyrrolo[1,2-b][1,2,4]triazine-5,7-dione] is 160 nM. `C=CCC1CCC2N(C)C(=O)c3c(O)c(=O)ccn3N2C1c1ccccc1Cl` (stereo not shown) [Compound 64A, 2-allyl-1-(2-chlorophenyl)-7-hydroxy-5-methyl-1,2,3,4,4a,5-hexahydrodipyrido[1,2-b:2′,1′-f][1,2,4]triazine-6,8-dione] registered an EC50 of 3790 nM.

Still in this assay, the particulars now being: MDCK, 48 h.
Turning to `CN1C(=O)c2c(O)c(=O)ccn2N2C(c3cccc(OC(F)F)c3)CCCC12` (single isomer, unassigned) [Compound 12A, 1-(3-(difluoromethoxy)phenyl)-7-hydroxy-5-methyl-1,2,3,4,4a,5-hexahydrodipyrido[1,2-b:2′,1′-f][1,2,4]triazine-6,8-dione], the EC50 is greater than 8100 nM. Consider `CCC1(c2ccccc2)CCC2N(C)C(=O)c3c(O)c(=O)ccn3N21` (stereo not shown) [Compound 62A, 1-ethyl-6-hydroxy-4-methyl-1-phenyl-2,3,3a,4-tetrahydro-1H-pyrido[2,1-f]pyrrolo[1,2-b][1,2,4]triazine-5,7-dione], for which the EC50 is greater than 8100 nM. For the compound `CN1C(=O)c2c(O)c(=O)ccn2N2C(c3ccccc3)CCC12` (single isomer, unassigned) [Compound 60A, 6-hydroxy-4-methyl-1-phenyl-2,3,3a,4-tetrahydro-1H-pyrido[2,1-f]pyrrolo[1,2-b][1,2,4]triazine-5,7-dione], the EC50 was greater than 8100 nM. In turn, `CN1C(=O)c2c(O)c(=O)ccn2N2C(c3ccccc3)C(C3CC3(F)F)CCC12` (single isomer, unassigned) [Compound 105A, 2-(2,2-difluorocyclopropyl)-7-hydroxy-5-methyl-1-phenyl-1,2,3,4,4a,5-hexahydrodipyrido[1,2-b:2′,1′-f][1,2,4]triazine-6,8-dione] returned a concentration for a half-maximal effect (EC50) of 413 nM.

As a reminder, the EC50 is the concentration needed to bring the measured effect to its halfway point. A lower EC50 goes with higher potency in that assay.
